Laboratory results as given in the supplement of paper PMC10307832.

What was measured:
Experiment in all cases: relative viability (nuclei count vs DMSO), 5 days (fraction); higher = more cells survive
[1] = compound: C1=CC=C2C(=C1)N=C(S2)C(C#N)C3=NC(=NC=C3)NCCC4=CN=CC=C4 + CC1(C)CCC(c2ccc(Cl)cc2)=C(CN2CCN(c3ccc(C(=O)NS(=O)(=O)c4ccc(N[C@H](CCN5CCOCC5)CSc5ccccc5)c(S(=O)(=O)C(F)(F)F)c4)cc3)CC2)C1 [Navitoclax] (partner 0.5 µM)
Summary of the method: (§1)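 For relative viability, nuclei counts in treated wells were divided by those in vehicle wells. Lung cancer cell lines had been pin-tool dosed in 1536-well plates the day after seeding and cultured for 5 days, then fixed and stained in one step (final 0.05% Triton X-100, 1% formaldehyde, 1 ug/ml Hoechst) and imaged at 4×. Doses were one drug alone or a fixed anchor-drug dose plus five library-drug doses (not always all listed) in √10 steps, and values are duplicate-plate medians.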

CUDC-101 + Phenformin = compound: C#Cc1cccc(Nc2ncnc3cc(OC)c(OCCCCCCC(=O)NO)cc23)c1 [CUDC-101] + N=C(N)NC(=N)NCCc1ccccc1 [Phenformin] (partner 250 µM)
Summary of the method: as §1

CUDC-101 + Vorinostat = compound: C#Cc1cccc(Nc2ncnc3cc(OC)c(OCCCCCCC(=O)NO)cc23)c1 [CUDC-101] + O=C(CCCCCCC(=O)Nc1ccccc1)NO [Vorinostat] (partner 1 µM)
Summary of the method: as §1

CUDC-101 + OSI-027 = compound: C#Cc1cccc(Nc2ncnc3cc(OC)c(OCCCCCCC(=O)NO)cc23)c1 [CUDC-101] + COc1cccc2cc(-c3nc([C@H]4CC[C@H](C(=O)O)CC4)n4ncnc(N)c34)[nH]c12 [OSI-027] (partner 0.5 µM)
Summary of the method: as §1

Cell Line | relative viability ([1]; first compound 0.005 µM) | relative viability ([1]; first compound 0.01581 µM) | relative viability ([1]; first compound 0.05 µM) | relative viability ([1]; first compound 0.1581 µM) | relative viability ([1]; first compound 0.5 µM) | relative viability (CUDC-101 + Phenformin; first compound 0.01 µM) | relative viability (CUDC-101 + Phenformin; first compound 0.03162 µM) | relative viability (CUDC-101 + Phenformin; first compound 0.1 µM) | relative viability (CUDC-101 + Phenformin; first compound 0.3162 µM) | relative viability (CUDC-101 + Phenformin; first compound 1 µM) | relative viability (CUDC-101 + Vorinostat; first compound 0.01 µM) | relative viability (CUDC-101 + Vorinostat; first compound 0.03162 µM) | relative viability (CUDC-101 + Vorinostat; first compound 0.1 µM) | relative viability (CUDC-101 + Vorinostat; first compound 0.3162 µM) | relative viability (CUDC-101 + Vorinostat; first compound 1 µM) | relative viability (CUDC-101 + OSI-027; first compound 0.01 µM) | relative viability (CUDC-101 + OSI-027; first compound 0.03162 µM) | relative viability (CUDC-101 + OSI-027; first compound 0.1 µM) | relative viability (CUDC-101 + OSI-027; first compound 0.3162 µM) | relative viability (CUDC-101 + OSI-027; first compound 1 µM)
LOU-NH91 | 0.682 | 0.724 | 0.578 | 0.633 | 0.641 | 0.736 | 0.56 | 0.534 | 0.587 | 0.393 | 1.04 | 0.842 | 0.833 | 0.703 | 0.43 | 0.753 | 0.633 | 0.523 | 0.514 | 0.443
NCI-H358 |  |  |  |  |  | 0.378 | 0.346 | 0.32 | 0.312 | 0.193 | 0.697 | 0.733 | 0.695 | 0.447 | 0.128 | 0.834 | 0.893 | 0.909 | 0.884 | 0.315
NCI-H522 |  |  |  |  |  | 0.677 | 0.688 | 0.777 | 0.744 | 0.572 | 0.758 | 0.769 | 1.09 | 0.921 | 0.779 | 0.638 | 0.64 | 0.67 | 0.703 | 0.549
NCI-H650 |  |  |  |  |  | 0.453 | 0.475 | 0.465 | 0.385 | 0.38 | 0.547 | 0.517 | 0.414 | 0.456 | 0.51 | 0.58 | 0.569 | 0.622 | 0.587 | 0.474
NCI-H661 |  |  |  |  |  | 0.284 | 0.291 | 0.291 | 0.311 | 0.246 | 0.783 | 0.764 | 0.748 | 0.534 | 0.362 | 0.709 | 0.808 | 0.735 | 0.711 | 0.346
NCI-H1299 | 1.08 | 1.11 | 1.05 | 1.11 | 1.09 |  |  |  |  |  |  |  |  |  |  |  |  |  |  | 
NCI-H1563 |  |  |  |  |  | 0.664 | 0.643 | 0.745 | 0.613 | 0.659 |  |  |  |  |  | 0.732 | 0.751 | 0.783 | 0.728 | 0.675
NCI-H1623 |  |  |  |  |  | 0.565 | 0.597 | 0.539 | 0.631 | 0.457 |  |  |  |  |  | 0.452 | 0.441 | 0.33 | 0.329 | 0.239
NCI-H1648 |  |  |  |  |  |  |  |  |  |  | 0.631 | 0.378 | 0.333 | 0.225 | 0.22 | 0.265 |  | 0.243 | 0.266 | 0.254
NCI-H1703 | 1.01 | 1.04 | 1.02 | 1.14 | 1.02 |  |  |  |  |  |  |  |  |  |  |  |  |  |  | 
NCI-H1792 |  | 0.571 | 0.631 | 0.961 | 0.451 | 0.323 | 0.332 |  | 0.145 | 0.277 |  |  |  |  |  | 0.777 | 0.649 | 0.731 | 0.715 | 0.629
NCI-H2342 |  |  |  |  |  | 0.619 | 0.621 | 0.667 | 0.643 | 0.43 | 0.737 | 0.663 | 0.773 | 0.685 | 0.703 | 0.579 | 0.607 | 0.59 | 0.673 | 0.725
SW 900 |  |  |  |  |  | 0.666 | 0.538 | 0.687 | 0.499 | 0.643 | 0.48 | 0.569 | 0.31 | 0.49 | 0.217 | 0.577 | 0.42 | 0.562 | 0.577 | 0.662
